For this experiment, the system named is Alk-3 deleted mice and control mice, NTN. The experiment is described as follows: NTN in Alk-3 deleted (γGT-Cre; Alk3 flox/flox) and control mice. Type of experiment: in vivo. As to the method: FIG. 76A-FIG. 76T THR-123 acts on tubule Alk3 as a receptor in kidney disease models. FIG. 76A-FIG. 76D, The effect of THR-123 on the IRI model kidney injury in Alk3^flox/flox and […]GTCre; Alk3^flox/flox mice. After ischemia reperfusion injury the mice were given THR-123 orally (5 mg/kg/day) till the day of sacrifice. FIG. 76A-FIG. 76C, the representative H&E staining picture of indicated group of mice are shown. FIG. 76D. Percentage renal tubular necrosis in IRI. Ten fields in each group were analyzed. Data are shown as mean±s.e.m. in the graph. FIG. 76E-FIG. 76T, The effect of THR-123 on the NTN model kidney injury in Alk3^flox/flox and gGTCre; Alk3^flox/flox mice. Six weeks after NTN was introduced in the indicated groups of mice, mice were treated with PBS or THR-123 orally. FIG. 76E-FIG. 76H, the representative MTS staining picture of indicated group of mice are shown. FIG. 76I, Morphometric analyses from 9 weeks of NTN models in indicated groups. FIG. 76J-FIG. 76N, Macrophage accumulation analysis in the kidney of NTN model in Alk3^flox/flox and gGTCre; Alk3^flox/flox mice. FIG. 76J-FIG. 76M, Mac-1 immunofluorescence study of indicated groups of mice. FIG. 76N, The number of macrophages per field of view (×400 magnification) was assessed by counting positively labeled cells in 5 random fields of view per slide, with 5 slides per experimental group. Data are shown as mean±s.e.m. in the graph. FIG. 76O-FIG. 76S, EMT analysis, FIG. 76O-FIG. 76R, E-cadherin/FSP1 immunolabeling of kidney in NTN-induced Alk3^flox/flox and GTCre; Alk3^flox/flox mice treated with either PBS or THR-123. FIG. 76S. Percent of E-cadherin/FSP1 double positive tubule. 500 tubules per slide, 5 slides per experimental group were analyzed. Data are expressed as mean±s.e.m. in the graph. FIG. 76T, Blood urea nitrogen measurement in 6 and 9 weeks of NTN in indicated groups of mice (all n=4).
FIG. 79A-FIG. 79D. Tubule cell apoptosis was analyzed in frozen kidney sections of indicated groups of animals by TUNEL staining. Representative pictures were shown. FIG. 79D. Quantification of TUNEL positive tubule cells. The number of TUNEL positive tubules per field of view (×200 magnification) was assessed by counting positively labeled cells in 5 random fields of view per slide, with 5 slides per experimental group.
Alk-3 flox mice are provided by Dr. Yuji Mishina, National Institutes of Health with material transfer agreements. γGT-Cre mice are provided from Dr. Eric Neilson, Vanderbilt University Medical Center. NTN is induced by the method described above.

Positions of bridges follow the written chain, without caps; N, C: chain ends.

For “(H)-CYFDDSSNVLCKKYRS-(OH) (H-CYFDDSSNVLCKKYRS-OH; disulfide 1-11; SMILES CC(C)C[C@@H]1NC(=O)[C@H](C(C)C)NC(=O)[C@H](CC(N)=O)NC(=O)[C@H](CO)NC(=O)[C@H](CO)NC(=O)[C@H](CC(=O)O)NC(=O)[C@H](CC(=O)O)NC(=O)[C@H](Cc2ccccc2)NC(=O)[C@H](Cc2ccc(O)cc2)NC(=O)[C@@H](N)CSSC[C@@H](C(=O)N[C@@H](CCCCN)C(=O)N[C@@H](CCCCN)C(=O)N[C@@H](Cc2ccc(O)cc2)C(=O)N[C@@H](CCCNC(=N)N)C(=O)N[C@@H](CO)C(=O)O)NC1=O) [SEQ ID NO: 1]”, the “renal function (blood urea nitrogen), NTN” value (Alk3-deleted mice) is given as “not realized”. Besides, for the setting “Alk3 deleted mice”, the “EMT program in the tubules, NTN” value is “did not inhibit”; the “apoptosis, NTN kidney” value is “no effect on apoptosis”; the “macrophage accumulation in the kidney, NTN” value is given as “did not inhibit”. For the same substance, the “renal injury and fibrosis, NTN” value (Alk-3 deleted mice) is “no efficacy”. Where the note is “control mice”, the “EMT program in the tubules, NTN” value is reported as “inhibition”; the “macrophage accumulation in the kidney, NTN” value is recorded as “inhibition”; the “renal function (blood urea nitrogen), NTN” value is recorded as “restored renal function”; the “renal injury and fibrosis, NTN” value is “successful in controlling renal injury and fibrosis”. For the same substance, the “apoptosis, NTN kidney” value (wild type kidney) is recorded as “inhibit apoptosis”.

These data come from patent US20160058829A1, “ANTI-FIBROTIC PEPTIDES AND THEIR USE IN METHODS FOR TREATING DISEASES AND DISORDERS CHARACTERIZED BY FIBROSIS” (Thrasos Innovation, Inc., priority 2011, published 2016).
